Reference: patent US9174977B2, “2-azabicyclo[4.1.0]heptane derivatives as orexin receptor antagonists for the treatment of certain disorders” (Rottapharm Biotech S.r.l., priority 2012, dated 2015)

Experiments:
human OX2 receptors = target: T1, human OX2 receptors (Homo sapiens, UniProt O43614); test: antagonistic activity against human OX2 receptor, calcium fluorimetry (Fluo-4NW) in transfected HEK-293 cells; format: cell-based; conditions: HEK-293 cells transfected with human recombinant OX2, activated with orexin-B 10 nM; pKb = co-logarithm of apparent dissociation constant (modified Cheng Prusoff)
T1 construct: expressed in transfected cells; host or cells: HEK-293 cells
T1 sequence (O43614 1-444): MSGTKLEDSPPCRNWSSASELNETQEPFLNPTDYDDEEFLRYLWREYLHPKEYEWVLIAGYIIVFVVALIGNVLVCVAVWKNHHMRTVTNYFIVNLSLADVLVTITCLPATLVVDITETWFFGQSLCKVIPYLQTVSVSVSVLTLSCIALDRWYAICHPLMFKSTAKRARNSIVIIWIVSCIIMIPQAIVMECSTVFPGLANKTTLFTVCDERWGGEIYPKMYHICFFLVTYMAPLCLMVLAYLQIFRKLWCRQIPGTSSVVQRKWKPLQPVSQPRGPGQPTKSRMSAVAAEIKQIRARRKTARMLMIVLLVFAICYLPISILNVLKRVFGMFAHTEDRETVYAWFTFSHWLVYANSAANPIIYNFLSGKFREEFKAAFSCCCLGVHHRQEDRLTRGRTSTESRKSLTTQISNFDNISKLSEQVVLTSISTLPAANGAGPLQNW
Procedure: (§1) In a typical experiment, the antagonistic activity against human OX1 and OX2 receptors is determined by using CHO e HEK-293 cells transfected with human recombinant OX1 and OX2 receptors respectively, seeded at density of 2 and 3×10^4 cells/well respectively in a 96 fluorimetry well plate. Thus the plate was loaded with the calcium dye (Fluo-4NW/probenecid in HBSS, Hepes 20 mM, pH 7,4; Invitrogen) at 37° C. for 60 min. Afterward the temperature was equilibrated at 22° C. for 15 min and the [Ca2+]i measured directly on the plate by using a fluorescent plate reader (CellLux Perkin Elmer).
(§2) Invention compounds were dissolved in DMSO, diluted in HBSS (DMSO, 0.3% final) and added to the wells. After 5 min CHO cells were activated with orexin-A, 3 nM while HEK-293 cells were activated with orexin-B, 10 nM.
(§3) The compounds, dissolved in DMSO and diluted in the medium (DMSO, 0.3% final), have been analysed in the 1 nM-1 μM concentration range (every concentration in duplicate). The antagonistic activity has been expressed as pKb (co-logarithm of the apparent dissociation constant calculated by using the modified Cheng Prusoff equation).
(§4) The results are expressed as percent of control specific […] response ((measured specific response/control specific agonist response)×100) obtained in the presence of the test compounds.
(§5) The IC50 values (concentration causing a half-maximal inhibition of the control specific agonist response) were determinated by non-linear regression analysis of the concentration curves generated with mean replicate values using hill equation curve fitting. The IC50 values are obtained by the arithmetical mean of at least two experiments.

human OX1 receptors = target: T2, human OX1 receptors (Homo sapiens, UniProt O43613); test: antagonistic activity against human OX1 receptor, calcium fluorimetry (Fluo-4NW) in transfected CHO cells; format: cell-based; conditions: CHO cells transfected with human recombinant OX1, activated with orexin-A 3 nM; pKb = co-logarithm of apparent dissociation constant (modified Cheng Prusoff)
T2 construct: expressed in transfected cells; host or cells: CHO cells
T2 sequence (O43613 1-425): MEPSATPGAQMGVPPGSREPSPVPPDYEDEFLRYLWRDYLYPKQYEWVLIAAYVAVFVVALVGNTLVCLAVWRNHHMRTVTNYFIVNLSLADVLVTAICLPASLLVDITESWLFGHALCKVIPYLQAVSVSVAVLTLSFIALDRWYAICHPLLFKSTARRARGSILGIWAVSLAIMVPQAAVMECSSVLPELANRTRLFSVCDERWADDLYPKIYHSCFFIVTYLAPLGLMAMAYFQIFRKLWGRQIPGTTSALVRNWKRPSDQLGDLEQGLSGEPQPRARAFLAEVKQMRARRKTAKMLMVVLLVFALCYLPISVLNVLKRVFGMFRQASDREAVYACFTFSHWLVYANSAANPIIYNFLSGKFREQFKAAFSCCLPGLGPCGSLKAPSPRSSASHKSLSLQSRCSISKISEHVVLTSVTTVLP
Procedure: as §1, §2, §3, §4, §5

| SMILES | Kb (human OX2 receptors) [nM] | Kb (human OX1 receptors) [nM] |
| --- | --- | --- |
| O=C(c1cc(Cl)ccc1-c1ncccn1)N1[C@H](CNc2cc(C(F)(F)F)ccn2)CC[C@@H]2C[C@@H]21 [Compound 4d, (5-chloro-2-(pyrimidin-2-yl)phenyl)((1S,3S,6R)-3-(((4-(trifluoromethyl)pyridin-2-yl)amino)methyl)-2-azabicyclo[4.1.0]heptan-2-yl)methanone] | 50.1 | 7.94 |
| O=C(c1cc(Cl)ccc1-c1ncccn1)N1[C@H](COc2ccc(C(F)(F)F)cn2)CC[C@H]2C[C@H]21 [Compound 3d, (5-chloro-2-(pyrimidin-2-yl)phenyl)((1R,3S,6S)-3-(((5-(trifluoromethyl)pyridin-2-yl)oxy)methyl)-2-azabicyclo[4.1.0]heptan-2-yl)methanone] | 20 | 1.26 |
| Cc1ccc(-c2ncccn2)c(C(=O)N2[C@H](CNc3nccc(C(F)(F)F)n3)CC[C@H]3C[C@H]32)c1 [Compound 1k, (5-methyl-2-(pyrimidin-2-yl)phenyl)((1R,3S,6S)-3-(((4-(trifluoromethyl)pyrimidin-2-yl)amino)methyl)-2-azabicyclo[4.1.0]heptan-2-yl)methanone] | 5.01 | 2.51 |
| O=C(c1cc(Cl)ccc1-c1ncccn1)N1[C@H](CNc2nccc(C(F)(F)F)n2)CC[C@@H]2C[C@@H]21 [Compound 4h, (5-chloro-2-(pyrimidin-2-yl)phenyl)((1S,3S,6R)-3-(((4-(trifluoromethyl)pyrimidin-2-yl)amino)methyl)-2-azabicyclo[4.1.0]heptan-2-yl)methanone] |  | 31.6 |
| N#Cc1ccc(-c2ncccn2)c(C(=O)N2[C@H](CNc3ccc(Cl)cn3)CC[C@H]3C[C@H]32)c1 [Compound 1i, 3-((1R,3S,6S)-3-(((5-chloropyridin-2-yl)amino)methyl)-2-azabicyclo[4.1.0]heptane-2-carbonyl)-4-(pyrimidin-2-yl)benzonitrile] | 20 | 1.58 |
| Cc1ccc(-c2ncccn2)c(C(=O)N2[C@H](COc3ccc(C(F)(F)F)cn3)CC[C@H]3C[C@H]32)c1 [Compound 3g, (5-methyl-2-(pyrimidin-2-yl)phenyl)((1R,3S,6S)-3-(((5-(trifluoromethyl)pyridin-2-yl)oxy)methyl)-2-azabicyclo[4.1.0]heptan-2-yl)methanone] | 12.6 | 1.58 |
| O=C(c1cc(Cl)ccc1-c1ncccn1)N1[C@H](CNc2cc(C(F)(F)F)ccn2)CC[C@H]2C[C@H]21 [Compound 1a, (5-chloro-2-(pyrimidin-2-yl)phenyl)((1R,3S,6S)-3-(((4-(trifluoromethyl)pyridin-2-yl)amino)methyl)-2-azabicyclo[4.1.0]heptan-2-yl)methanone] | 3.98 | 1.58 |
| Cc1ccc(-c2ncccn2)c(C(=O)N2[C@H](CNc3nccc(C(F)(F)F)n3)CC[C@@H]3C[C@@H]32)c1 [Compound 4i, (5-methyl-2-(pyrimidin-2-yl)phenyl)((1S,3S,6R)-3-(((4-(trifluoromethyl)pyrimidin-2-yl)amino)methyl)-2-azabicyclo[4.1.0]heptan-2-yl)methanone] |  | 25.1 |
| O=C(c1cc(Cl)ccc1-c1ncccn1)N1[C@H](CNc2ccc(Cl)cn2)CC[C@@H]2C[C@@H]21 [Compound 4e, (5-chloro-2-(pyrimidin-2-yl)phenyl)((1S,3S,6R)-3-(((5-chloropyridin-2-yl)amino)methyl)-2-azabicyclo[4.1.0]heptan-2-yl)methanone] |  | 3.98 |
| N#Cc1ccc(-c2ncccn2)c(C(=O)N2[C@H](CNc3nccc(C(F)(F)F)n3)CC[C@H]3C[C@H]32)c1 [Compound 1j, 4-(pyrimidin-2-yl)-3-((1R,3S,6S)-3-(((4-(trifluoromethyl)pyrimidin-2-yl)amino)methyl)-2-azabicyclo[4.1.0]heptane-2-carbonyl)benzonitrile] | 20 | 5.01 |
| O=C(c1cc(Cl)ccc1-c1ncccn1)N1[C@H](CNc2nccc(C(F)(F)F)n2)CC[C@H]2C[C@H]21 [Compound 1g, (5-chloro-2-(pyrimidin-2-yl)phenyl)((1R,3S,6S)-3-(((4-(trifluoromethyl)pyrimidin-2-yl)amino)methyl)-2-azabicyclo[4.1.0]heptan-2-yl)methanone] | 5.01 | 1 |
| N#Cc1ccc(-c2ncccn2)c(C(=O)N2[C@H](COc3ccc(F)cn3)CC[C@H]3C[C@H]32)c1 [Compound 3b, 3-((1R,3S,6S)-3-(((5-fluoropyridin-2-yl)oxy)methyl)-2-azabicyclo[4.1.0]heptane-2-carbonyl)-4-(pyrimidin-2-yl)benzonitrile] |  | 79.4 |
| O=C(c1cc(Cl)ccc1-c1ncccn1)N1[C@H](COc2ccc(F)cn2)CC[C@H]2C[C@H]21 [Compound 3c, (5-chloro-2-(pyrimidin-2-yl)phenyl)((1R,3S,6S)-3-(((5-fluoropyridin-2-yl)oxy)methyl)-2-azabicyclo[4.1.0]heptan-2-yl)methanone] | 63.1 | 12.6 |
| Cc1ccc(-c2ncccn2)c(C(=O)N2[C@H](CNc3ccc(Cl)cn3)CC[C@@H]3C[C@@H]32)c1 [Compound 4g, ((1S,3S,6R)-3-(((5-chloropyridin-2-yl)amino)methyl)-2-azabicyclo[4.1.0]heptan-2-yl)(5-methyl-2-(pyrimidin-2-yl)phenyl)methanone] |  | 1.58 |

Now from value to compound:

| Kb (human OX2 receptors) [nM] | Kb (human OX1 receptors) [nM] | SMILES |
| --- | --- | --- |
| 6.31 | 1.26 | Cc1nc(C(=O)N2[C@H](CNc3nccc(C(F)(F)F)n3)CC[C@H]3C[C@H]32)c(-c2ccccc2)s1 [Compound 2c, (2-methyl-5-phenylthiazol-4-yl)((1R,3S,6S)-3-(((4-(trifluoromethyl)pyrimidin-2-yl)amino)methyl)-2-azabicyclo[4.1.0]heptan-2-yl)methanone] |
| 15.8 | 1.26 | Cc1nc(C(=O)N2[C@H](CNc3ccc(Cl)cn3)CC[C@H]3C[C@H]32)c(-c2ccccc2)s1 [Compound 2b, ((1R,3S,6S)-3-(((5-chloropyridin-2-yl)amino)methyl)-2-azabicyclo[4.1.0]heptan-2-yl)(2-methyl-5-phenylthiazol-4-yl)methanone] |
| 50.1 | 2.51 | Cc1nc(C(=O)N2[C@H](CNc3ccc(C(F)(F)F)cn3)CC[C@@H]3C[C@@H]32)c(-c2ccccc2)s1 [Compound 5a, (2-methyl-5-phenylthiazol-4-yl)((1S,3S,6R)-3-(((5-(trifluoromethyl)pyridin-2-yl)amino)methyl)-2-azabicyclo[4.1.0]heptan-2-yl)methanone] |
| 200 | 5.01 | O=C(c1cc(Cl)ccc1-c1ncccn1)N1[C@H](CNc2ccc(C(F)(F)F)cn2)CC[C@@H]2C[C@@H]21 [Compound 4b, (5-chloro-2-(pyrimidin-2-yl)phenyl)((1S,3S,6R)-3-(((5-(trifluoromethyl)pyridin-2-yl)amino)methyl)-2-azabicyclo[4.1.0]heptan-2-yl)methanone] |
| 79.4 | 6.31 | N#Cc1ccc(-c2ncccn2)c(C(=O)N2[C@H](CNc3ccc(C(F)(F)F)cn3)CC[C@@H]3C[C@@H]32)c1 [Compound 4c, 4-(pyrimidin-2-yl)-3-((1S,3S,6R)-3-(((5-(trifluoromethyl)pyridin-2-yl)amino)methyl)-2-azabicyclo[4.1.0]heptane-2-carbonyl)benzonitrile] |
| 39.8 | 6.31 | Cc1ccc(-c2ncccn2)c(C(=O)N2[C@H](CNc3cc(C(F)(F)F)ccn3)CC[C@@H]3C[C@@H]32)c1 [Compound 4f, (5-methyl-2-(pyrimidin-2-yl)phenyl)((1S,3S,6R)-3-(((4-(trifluoromethyl)pyridin-2-yl)amino)methyl)-2-azabicyclo[4.1.0]heptan-2-yl)methanone] |
